Patent US7022710B2, “A1 adenosine receptor antagonists” (CV Therapeutics, Inc., priority 2003, dated 2006)

Tests used:
human A1 AdoR = target: T1, human A1 AdoR (UniProt P30542); assay: Adenosine receptor radioligand binding assay, A1; details: competition with 0.5–1 nM 3H-CPX, membranes of CHO-A1 or DDT1 MF-2 (hamster, endogenous A1)
T1 sequence (P30542 1-326): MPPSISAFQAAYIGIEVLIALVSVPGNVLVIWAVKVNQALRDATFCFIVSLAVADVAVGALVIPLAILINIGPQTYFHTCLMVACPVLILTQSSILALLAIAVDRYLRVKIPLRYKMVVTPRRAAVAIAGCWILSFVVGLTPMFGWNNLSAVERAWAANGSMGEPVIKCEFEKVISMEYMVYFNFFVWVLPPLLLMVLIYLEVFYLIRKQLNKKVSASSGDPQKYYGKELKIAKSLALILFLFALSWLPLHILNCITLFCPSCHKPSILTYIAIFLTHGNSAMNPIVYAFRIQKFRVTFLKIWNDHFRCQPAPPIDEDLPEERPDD
Procedure: (§1) The cDNAs for human A1, A2A, A2B or A3 AdoRs were prepared by RT-PCR from total RNA of human cells or tissues and sequenced on both strands. The expression vector containing each of these cDNAs and a second vector containing a neomycin or puromycin-resistance gene were introduced to HEK-293 or CHO cells by Lipofectin-Plus (Life Technology). Colonies were selected by growing transfected cells in the presence of neomycin or puromycin. Stably transfected cells were maintained in Dulbecco's modified Eagle's medium (DMEM) or F-12 medium with 10% fetal bovine serum, 100 μg/ml penicillin, 100 μg/ml streptomycin and appropriate concentrations of neomycin or puromycin. These stably transfected cells were referred to as HEK-“AdoR” or CHO-“AdoR” depending on the receptors that they express. The cell lines used routinely were CHO-A1, HEK-A2A, HEK-A2B.and CHO-A3 cells. In addition, hamster DDT1 MF-2 cells that express endogenous A1 AdoRs were also used to determine the binding activities of compounds for A1 AdoRs.
(§2) Monolayers of transfected cells or DDT1 MF-2 were washed with phosphate buffered saline (PBS) and harvested in a buffer containing 10 mM HEPES (pH 7.4), 10 mM EDTA and protease inhibitors. The cells were homogenized in polytron for 1 minute at setting 4 and centrifuged at 29000 g for 15 minutes at 4° C. The cell pellets were washed with a buffer containing 10 mM HEPES (pH7.4), 1 mM EDTA and protease inhibitors, and were resuspended in the same buffer supplemented with 10% sucrose. Frozen aliquots were kept at −80° C.
(§3) The affinities of compounds for A1, A2A, A2B or A3 AdoRs were determined in competition studies using radioligands such as ^3H-CPX (A1 antagonist), or ^3H-CCPA (A1 agonist), ^3H-ZM241385 (A2A antagonist) or ^3H-CGS21680 (A2A agonist), ^3H-ZM241385 (A2B antagonist) or ^125I-AB-MECA (A3 agonist) and membranes of corresponding cells. For example, to determine the affinity for A1 AdoRs, the competition assays were started by mixing 0.5–1 nM ^3H-CPX with various concentrations of test compounds and 25–100 μg membrane proteins of CHO-A1 or DDT1 MF-2 in TE buffer (50 mM Tris and 1 mM EDTA) supplemented with 1 U/ml adenosine deaminase. The assays were incubated for 60–90 minutes, stopped by filtration onto GF/B filter plates using Packard Harvester and washed four times with ice-cold TM buffer (10 mM Tris, 1 mM MgCl2, pH 7.4). The amounts of radioligands that bound to the GF/B filter plates were determined by scintillation counting. Nonspecific binding was determined in the presence of 1–10 μM of cold ligands. Bmax and KD values were calculated using GraphPad software.

human A2B AdoR = target: T2, human A2B AdoR (Homo sapiens, UniProt P29275); assay: Adenosine receptor radioligand binding assay, A2B; details: competition with 3H-ZM241385, HEK-A2B cell membranes
T2 construct: expressed in transfected cells; host or cells: HEK-293 (HEK-A2B), membrane preparation
T2 sequence (P29275 1-332): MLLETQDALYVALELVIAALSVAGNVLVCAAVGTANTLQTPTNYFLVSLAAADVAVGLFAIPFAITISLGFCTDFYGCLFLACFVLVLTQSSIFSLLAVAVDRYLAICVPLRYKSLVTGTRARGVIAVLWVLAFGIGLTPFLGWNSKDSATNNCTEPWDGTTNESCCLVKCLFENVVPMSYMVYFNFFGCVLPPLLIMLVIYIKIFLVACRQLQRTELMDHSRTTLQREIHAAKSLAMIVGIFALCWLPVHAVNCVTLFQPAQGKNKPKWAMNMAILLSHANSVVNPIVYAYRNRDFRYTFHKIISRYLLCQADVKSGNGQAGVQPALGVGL
Procedure: as §1, §2, §3

| Molecule | Ki (human A1 AdoR) | Ki (human A2B AdoR) |
| --- | --- | --- |
| (4-{[(6-amino-9-propyl-8-pyrazolylpurin-2-yl)amino]methyl}phenyl)methan-1-ol | 1790 nM | 7000 nM |
| (6-amino-9-propyl-8-pyrazolylpurin-2-yl)(2-phenylethyl)amine | 113 nM | 500 nM |
| (6-amino-9-propyl-8-pyrazolylpurin-2-yl)[2-(2,5-dimethoxyphenyl)ethyl]amine | 182 nM | 1680 nM |
| (6-amino-9-propyl-8-pyrazolylpurin-2-yl)[2-(2-chlorophenyl)ethyl]amine | 382 nM | 3640 nM |
| (6-amino-9-propyl-8-pyrazolylpurin-2-yl)[2-(4-chlorophenyl)ethyl]amine | 1090 nM | 5000 nM |
| {[3-(aminomethyl)phenyl]methyl}(6-amino-9-propyl-8-pyrazolylpurin-2-yl)amine | 408 nM | 7000 nM |

Now those with a lower Ki (human A1 AdoR), led by results:

| Ki (human A1 AdoR) | Ki (human A2B AdoR) | Molecule |
| --- | --- | --- |
| 15 nM | 1000 nM | CCn1c(-n2cccn2)nc2c(N)nc(NCc3ccccc3)nc21 [(6-amino-9-ethyl-8-pyrazolylpurin-2-yl)benzylamine] |
| 28 nM | 160 nM | (6-amino-9-propyl-8-pyrazolylpurin-2-yl)[2-(3-fluorophenyl)ethyl]amine |
| 66 nM | 2300 nM | (6-amino-9-propyl-8-pyrazolylpurin-2-yl)[2-(4-fluorophenyl)ethyl]amine |
